The record followed here is ChEMBL document CHEMBL1139883, “Additional scalarane sesterterpenes from the sponge Phyllospongia papyracea” (J Nat Prod, 2007).

Active and inactive are the calls of the source. The calls are words filed in the database; no cut-off is given here.

This experiment addresses T1, Catenin beta-1 (Homo sapiens) (UniProt P35222).
T1 sequence (whole entry): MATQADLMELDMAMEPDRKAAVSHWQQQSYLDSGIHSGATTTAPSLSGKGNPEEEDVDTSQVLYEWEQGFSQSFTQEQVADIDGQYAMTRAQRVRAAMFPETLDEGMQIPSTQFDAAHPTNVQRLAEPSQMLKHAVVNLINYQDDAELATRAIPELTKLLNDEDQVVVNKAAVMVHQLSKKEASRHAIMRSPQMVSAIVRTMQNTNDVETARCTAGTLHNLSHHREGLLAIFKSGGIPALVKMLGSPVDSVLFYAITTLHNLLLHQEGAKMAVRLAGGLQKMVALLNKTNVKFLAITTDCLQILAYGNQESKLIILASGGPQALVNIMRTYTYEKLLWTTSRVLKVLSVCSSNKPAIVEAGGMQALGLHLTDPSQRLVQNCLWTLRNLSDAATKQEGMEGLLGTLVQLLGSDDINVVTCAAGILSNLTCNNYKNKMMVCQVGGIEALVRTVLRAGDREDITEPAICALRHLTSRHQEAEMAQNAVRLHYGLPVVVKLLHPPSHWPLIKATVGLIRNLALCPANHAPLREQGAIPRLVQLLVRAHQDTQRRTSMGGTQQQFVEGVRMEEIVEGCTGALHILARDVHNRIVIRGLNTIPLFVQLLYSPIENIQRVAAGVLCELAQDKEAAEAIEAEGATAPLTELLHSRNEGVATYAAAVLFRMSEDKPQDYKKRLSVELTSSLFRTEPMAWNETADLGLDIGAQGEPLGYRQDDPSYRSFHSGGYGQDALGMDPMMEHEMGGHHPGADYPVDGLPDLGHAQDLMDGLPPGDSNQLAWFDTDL
The experiment is described as follows: Activity against beta […]/Tcf4 complex by PPI assay.
For the molecule `CC[C@@]1(C)CCC[C@]2(C)[C@H]3C[C@H](OC(C)=O)[C@]45C[C@@H](O)[C@H]4C(C(C)=O)=CC[C@H]5[C@]3(C)CC[C@@H]12`, the result was inactive. For the molecule `CC[C@@]1(C)CCC[C@]2(C)[C@H]3C[C@H](OC(C)=O)[C@]4(C)C5=C(C(=O)C[C@H]4[C@]3(C)CC[C@@H]12)C(C)OC5=O` (some centres not stated), the result was inactive. To `CC[C@@]1(C)CCC[C@]2(C)[C@H]3C[C@H](OC(C)=O)[C@]4(C)[C@@H](O)C(C(C)=O)=CC[C@H]4[C@]3(C)CC[C@@H]12` belongs “inactive”. Regarding `CC[C@@]1(C)CCC[C@]2(C)[C@H]3C[C@H](OC(C)=O)[C@]4(C)[C@@H](C(=O)O)C(C(C)=O)=CC[C@H]4[C@]3(C)CC[C@@H]12`, the result was inactive. To `CC[C@@]1(C)CCC[C@]2(C)[C@H]3C[C@H](OC(C)=O)[C@@]4(C)C(=CC(=O)C5=C4C(=O)OC5(C)O)[C@]3(C)CC[C@@H]12` (some centres not stated) belongs “inactive”; to `CC[C@@]1(C)CCC[C@]2(C)[C@H]3C[C@H](OC(C)=O)[C@]45C[C@H](O)[C@H]4C(C(C)=O)=CC[C@H]5[C@]3(C)CC[C@@H]12`, “inactive”. To `CCC(O)CC(=O)O[C@@H]1C[C@H]2[C@]3(C)CC[C@H]4[C@@](C)(CC)CCC[C@]4(C)[C@H]3C[C@H](OC(C)=O)[C@]2(C)[C@@H](C(=O)O)[C@@H]1C(C)=O` (some centres not stated) belongs “inactive”.
